Patent US6492360B1, “Phthalazine derivatives phosphodiesterase 4 inhibitors” (Zambon Group S.p.A., priority 1998, dated 2002)
Where a name gives a salt, the structure may show the parent alone.

What was measured:
Assay type in all cases: biochemical
PDE 4 = PDE 4 enzyme inhibition (SPA); conditions: PDE 4 purified from human PMNs; cAMP 1 μM
Description: a) Human Polymorphonuclear Leukocyte Isolation
The polymorphonuclear leukocytes (PMNs) were isolated from peripheral blood of healthy volunteers according to Boyum A. (Scand. J. Immunol., 1976, 5th suppl., 9). Briefly, the PMNs were purified by Ficoll-Paque gradient centrifugation followed by sedimentation on dextran and the erythrocyte contamination was eliminated by hypotonic lysis.
b) PDE 4 Enzyme Purification
The human PMNs were suspended in TRIS/HCl buffer (10 mM, pH 7.8) containing MgCl2 (5 mM), EGTA (4 mM), mercaptoethanol (5 mM), TRITON-X100 (1%), pepstatin A (1 μM), PMSF (100 μM) and leupeptin (1 μM), and homogenised by Polytron homogeniser. The homogenate was centrifuged at 25,000×g for 30 minutes at 4° C. and the PDE 4 enzyme was purified by ion exchange chromatography using the FPLC technique according to Schudt C. et al. (Naunyn-Schmidberg's Arch. Pharmacol., 1991, 334, 682). The supernatant was seeded on a UNO Q12 column (Bio-Rad) and the enzyme was eluted by sodium acetate linear gradient from 50 mM to 1M using a flow rate of 4.5 ml/minutes. The fractions containing enzymatic activity were pooled, dialysed against water and concentrated. The PDE 4 enzyme was stored at, −20° C. in the presence of ethylene glycol (30% v/v) until the use.
The enzyme activity was evaluated with a Scintillation Proximity Assay (SPA) kit (Amersham). The enzymatic reaction was performed in a final volume of 100 μl of TRIS/HCl buffer (50 mM, pH 7.5), MgCl2 (8.3 mM), EGTA (1.7 mM), cAMP (1 μM) and [^3H]cAMP (˜100.000 dpm) as tracer. The compounds of the invention, the reference ones or the vehicle were added at different concentrations. As reference compounds 6,7-dimethoxy-4-pyridin-4-yl-methyl)2H-phthalazin-1-one (reference 1) and 6,7-dimethoxy-4-(piperidin-4-yl-methyl)2H-phthalazin-1-one (reference 2) embraced by the general formula of the patent application EP-0 722 936 (in the name of Eisai) were used. The reaction was started by adding 1.5 μg protein and incubated for 40 minutes at 30° C. SPA beads (50 μl) containing 18 mM zinc sulphate were added to stop the reaction and after 20 minutes at room temperature the radioactivity was measured using a scintillation counter.
The IC50 value refers to the nanomolar concentration of the compound required to inhibit cyclic nucleotide hydrolysis by 50%, and it was calculated by non-linear regression analysis.

PDE 5 = biological target: T1, PDE 5 (Homo sapiens, UniProt O76074); test: PDE 5 enzyme inhibition (SPA); conditions: 10^−6 M; PDE 5 from human platelets; cGMP
T1 construct: The fractions containing the enzymatic activities (PDE 3 or PDE 5) were pooled; from tissue; host or cells: human platelets from platelet rich plasma of healthy volunteers
Description: (§1) a) Human Platelet Preparation
(§2) Human platelets were prepared from platelet rich plasma (PRP) obtained from healthy volunteers. The PRP was centrifuiged at 2,200 rpm for 15 minutes at 4° C. and the pellet was suspended in lysis solution (15 ml; 155 mM NH4Cl, 10 mM KHCO3 and 0.1 mM Na2EDTA, pH=7.4) and incubated for 10 minutes on ice-bath to remove the erythrocyte contamination. After centrifugation at 1,400 rpm for 10 minutes at 4° C., platelets were suspended in 10 ml of […], 5 mM KCl, 1 mM MgSO4, 10 mM glucose, 10 mM HEPES (pH 7.4) and 0.05 U/ml of hirudin, and stored at −20° C. until homogenisation. Platelets were thawed and 50 ml of 20 mM TRIS (pH=6.5) containing 5 mM β-mercapto-ethanol, 2 mM EDTA, 50 mM sodium acetate and 50 μM PMSF (homogenisation buffer) were added. The platelet suspension was then homogenised by a Polytron homogeniser (Polytron PT 1200) for 20 seconds. The homogenate was centrifuged at 14,500 rpm for 20 minutes at 4° C., and the supernatant was applied to an UNO Q12 column (Bio-Rad). The PDE 3 and PDE 5 were eluted by sodium acetate linear gradient from 0.05M to 1M using a flow rate of 4.5 ml/minutes. The fractions containing the enzymatic activities (PDE 3 or PDE 5) were pooled, dialysed against water and concentrated 10 times by ultrafiltration. The PDE 3 and PDE 5 fractions were stored at −20° C. in the presence of ethylene glycol (30% v/v) until use.
(§3) b) PDE 3 and PDE 5 Activity Assay
(§4) The enzyme activity was evaluated with a Scintillation Proximity Assay (SPA) kit (Amersham). The enzymatic reaction was performed in a final volume of 100 μl of TRIS/HCl buffer (50 mM, pH7.5), MgCl2 (8.3 mM), EGTA (1.7 mM), cAMP (for PDE 3 assay) or cGMP (for PDE 5 assay) (1 μM), [^3H]cAMP or [^3H]cGMP (10 μl ), and 10 μl of the compounds of the invention or vehicle. The reaction was started by adding the enzyme (1.0 μg) and incubated for 40 minutes at 30° C. SPA beads (50 μl) containing 18 mM zinc sulphate were added to stop the reaction and after 20 minutes at room temperature the radioacticity was measured using a scintillation counter.
(§5) The compounds were tested at 10^−6M and the results are expressed as percent of inhibition.

PDE 3 = biological target: T2, PDE 3 (Homo sapiens, UniProt Q14432); test: PDE 3 enzyme inhibition (SPA); conditions: 10^−6 M; PDE 3 from human platelets; cAMP
T2 construct: The fractions containing the enzymatic activities (PDE 3 or PDE 5) were pooled; from tissue; host or cells: human platelets from platelet rich plasma of healthy volunteers
Description: as §1, §2, §3, §4, §5

T2 sequence (Q14432 whole entry): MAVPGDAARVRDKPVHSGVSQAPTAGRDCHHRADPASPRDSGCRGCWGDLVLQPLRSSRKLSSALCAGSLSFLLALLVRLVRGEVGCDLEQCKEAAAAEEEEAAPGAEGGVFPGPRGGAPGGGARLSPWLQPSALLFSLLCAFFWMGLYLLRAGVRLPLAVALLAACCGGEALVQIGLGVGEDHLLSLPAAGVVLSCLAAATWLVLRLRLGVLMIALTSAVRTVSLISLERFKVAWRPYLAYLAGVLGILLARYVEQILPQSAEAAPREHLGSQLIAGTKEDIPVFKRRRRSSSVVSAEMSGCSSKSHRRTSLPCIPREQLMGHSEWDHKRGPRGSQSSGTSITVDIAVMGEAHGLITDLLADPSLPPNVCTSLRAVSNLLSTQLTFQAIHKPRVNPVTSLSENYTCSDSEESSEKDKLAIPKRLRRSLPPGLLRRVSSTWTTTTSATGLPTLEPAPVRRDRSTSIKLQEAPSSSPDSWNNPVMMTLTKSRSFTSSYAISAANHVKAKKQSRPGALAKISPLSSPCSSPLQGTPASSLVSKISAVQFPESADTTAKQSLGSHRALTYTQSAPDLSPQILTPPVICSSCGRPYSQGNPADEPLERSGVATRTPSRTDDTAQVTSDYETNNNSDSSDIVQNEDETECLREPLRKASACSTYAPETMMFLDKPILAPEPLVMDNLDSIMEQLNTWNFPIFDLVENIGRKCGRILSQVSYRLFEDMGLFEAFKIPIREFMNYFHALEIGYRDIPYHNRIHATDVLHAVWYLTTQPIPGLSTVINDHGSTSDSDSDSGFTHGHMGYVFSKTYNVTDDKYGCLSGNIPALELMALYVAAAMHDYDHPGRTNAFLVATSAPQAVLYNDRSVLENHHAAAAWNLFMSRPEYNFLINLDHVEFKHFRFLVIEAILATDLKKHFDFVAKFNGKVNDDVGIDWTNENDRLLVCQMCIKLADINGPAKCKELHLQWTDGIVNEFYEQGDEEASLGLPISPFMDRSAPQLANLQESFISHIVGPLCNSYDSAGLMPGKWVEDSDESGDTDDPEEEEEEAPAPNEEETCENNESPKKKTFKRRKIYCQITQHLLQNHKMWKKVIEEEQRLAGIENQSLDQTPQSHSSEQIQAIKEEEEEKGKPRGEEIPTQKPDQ

IC50 (PDE 4) | inhibition at 1 µM (PDE 5) | inhibition at 1 µM (PDE 3) | Structure (SMILES)
36 ± 4 nM | – | – | COc1ccc2c(c1)CN(C(N)=O)N=C2Cc1c(Cl)cncc1Cl [Compound 9, 4-(3,5-Dichloro-pyridin-4-ylmethyl)-7-methoxy-1H-phthalazine-2-carboxylic acid amide]
28 ± 4 nM | – | – | CCC(=O)N1Cc2cc(OC)ccc2C(Cc2c(Cl)cncc2Cl)=N1 [Compound 10, 1-[4-(3,5-Dichloro-pyridin-4-ylmethyl)-7-methoxy-1H-phthalazin-2-yl]-propan-1-one]
26 ± 3 nM | 10% | 17% | COc1ccc2c(c1)CN(C(=O)C(C)C)N=C2Cc1c(Cl)cncc1Cl [Compound 11, 1-[4-(3,5-Dichloro-pyridin-4-ylmethyl)-7-methoxy-1H-phthalazin-2-yl]-2-methyl-propan-1-one]
30 ± 8 nM | – | – | COc1ccc2c(c1)CN(C(=O)c1ccccc1)N=C2Cc1c(Cl)cncc1Cl [Compound 12, [4-(3,5-Dichloro-pyridin-4-ylmethyl)-7-methoxy-1H-phthalazin-2-yl]-phenyl-methanone]
12 ± 2 nM | – | – | COc1ccc2c(c1)CN(C(=O)Cc1ccccc1)N=C2Cc1c(Cl)cncc1Cl [Compound 13, 1-[4-(3,5-Dichloro-pyridin-4-ylmethyl)-7-methoxy-1H-phthalazin-2-yl]-2-phenyl-ethanone]
21 ± 4 nM | 0% | 15% | COc1ccc2c(c1)CN(S(C)(=O)=O)N=C2Cc1c(Cl)cncc1Cl [Compound 15, 4-(3,5-Dichloro-pyridin-4-ylmethyl)-2-methanesulfonyl-7-methoxy-1,2-dihydro-phthalazine]
72 ± 16 nM | – | – | COC(=O)N1Cc2cc(OC)ccc2C(Cc2c(Cl)cncc2Cl)=N1 [Compound 16, 4-(3,5-Dichloro-pyridin-4-ylmethyl)-7-methoxy-1H-phthalazine-2-carboxylic acid methyl ester]
131 ± 24 nM | 21% | 12% | CNC(=O)N1Cc2cc(OC)ccc2C(Cc2c(Cl)cncc2Cl)=N1 [Compound 17, 4-(3,5-Dichloro-pyridin-4-ylmethyl)-7-methoxy-1H-phthalazine-2-carboxylic acid methyl-amide]
158 ± 34 nM | 11% | 5% | CCn1nc(Cc2c(Cl)cncc2Cl)c2ccc(OC)cc2c1=O [Compound 20, 4-(3,5-Dichloro-pyridin-4-ylmethyl)-2-ethyl-7-methoxy-2H-phthalazin-1-one]
225 ± 35 nM | 8% | 20% | COc1ccc2c(Cc3c(Cl)cncc3Cl)nn(CCc3ccccc3)c(=O)c2c1 [Compound 22, 4-(3,5-Dichloro-pyridin-4-ylmethyl)-7-methoxy-2-phenethyl-2H-phthalazin-1-one]
209 ± 26 nM | 21% | 19% | COc1ccc2c(Cc3c(Cl)cncc3Cl)nn(CCCCCc3ccccc3)c(=O)c2c1 [Compound 23, 4-(3,5-Dichloro-pyridin-4-ylmethyl)-7-methoxy-2-(5-phenyl-pentyl)-2H-phthalazin-1-one]
36 ± 9 nM | – | – | COc1ccc2c(Cc3c(Cl)cncc3Cl)nn(S(C)(=O)=O)c(=O)c2c1 [Compound 24, 4-(3,5-Dichloro-pyridin-4-methyl)-2-methanesulfonyl-7-methoxy-2H-phthalazin-1-one]
14 ± 2 nM | 0% | – | COc1ccc2c(Cc3c(Cl)cncc3Cl)nnc(-c3nccs3)c2c1 [Compound 26, 1-(3,5-Dichloro-pyridin-4-ylmethyl)-6-methoxy-4-thiazol-2-yl-phthalazine]
48 ± 12 nM | 9% | 15% | COc1ccc2c(Cc3c(Cl)cncc3Cl)nnc(C#Cc3ccccc3)c2c1 [Compound 27, 1-(3,5-Dichloro-pyridin-4-ylmethyl)-6-methoxy-4-phenylethynyl-phthalazine]
10 ± 2 nM | – | – | COc1ccc2c(Cc3c(Cl)cncc3Cl)nncc2c1C#CCCCc1ccccc1 [Compound 32, 1-(3,5-Dichloro-pyridin-4-ylmethyl)-6-methoxy-5-(5-phenyl-pent-1-ynyl)-phthalazine]
19 ± 3 nM | – | – | COc1ccc2c(Cc3c(Cl)cncc3Cl)nncc2c1C=CCCCc1ccccc1 [Compound 33, 1-(3,5-Dichloro-pyridin-4-ylmethyl)-6-methoxy-5-(5-phenyl-pent-1-enyl)phthalazine]
7.1 ± 0.5 nM | – | – | COc1ccc2c(Cc3c(Cl)cncc3Cl)nncc2c1C#CCN(C)Cc1ccccc1 [Compound 35, Benzyl-{3-[1-(3,5-dichloro-pyridin-4-ylmethyl)-6-methoxy-phthalazin-5-yl]-prop-2-ynyl}-methyl-amine dihydrochloride]
96.4 ± 7.3 nM | – | – | COc1ccc2c(Cc3c(Cl)cncc3Cl)nncc2c1C#CCCCN1CCOCC1 [Compound 36, 1-(3,5-Dichloro-pyridin-4-ylmethyl)-6-methoxy-5-(5-morpholin-4-yl-pent-1-ynyl)-phthalazine dihydrochloride]
61 ± 2.4 nM | – | – | COc1ccc2c(Cc3c(Cl)cncc3Cl)nncc2c1C#CCO [Compound 37, 3-[1-(3,5-Dichloro-pyridin-4-ylmethyl)-6-methoxy-phthalazin-5-yl]-prop-2-yn-1-ol]
– | 33% | 2% | FC(F)Oc1ccc2c(Cc3c(Cl)cncc3Cl)nnc(-n3cncn3)c2c1 [Compound 54, 1-(3,5-Dichloro-pyridin-4-ylmethyl)-6-difluoromethoxy-4-[1,2,4]triazol-1-yl-phthalazine]
312 ± 48 nM | – | – | FC(F)Oc1ccc2c(Cc3c(Cl)cncc3Cl)nnc(N3CCOCC3)c2c1 [Compound 55, 1-(3,5-Dichloro-pyridin-4-ylmethyl)-6-difluoromethoxy-4-morpholin-4-yl-phthalazine]
93 ± 29 nM | 1% | -2% | C#Cc1nnc(Cc2c(Cl)cncc2Cl)c2ccc(OC)cc12 [Compound 60, 1-(3,5-Dichloro-pyridin-4-ylmethyl)-4-ethynyl-6-methoxy-phthalazine]
